In a melting point compilation (Tetko et al.; mined from patent text by program, amines drawn as free bases though some values may be those of a salt):

melting point | Compound
158 to 160 °C | COc1ccc(-c2cnc(N3CCC(O)CC3)nc2)cc1
140 to 143 °C | CC(C)(C)COc1ccc(N(CC(=O)O)C(=O)c2cccn2-c2ccc(F)cc2)cc1C#N
248 to 250 °C | FC(F)(F)c1cccc(Nc2nc(Cl)nc3nc[nH]c23)c1
58 to 60 °C | Cc1cc(CCCCC(=O)O)no1
154 to 155 °C | COC(=O)Cc1ccc(C(=C2CC(C)(C)CC(C)(C)C2)c2ccc(O)cc2)cc1
226 to 230 °C | CCN(CC)CCCNc1ncc2cc(-c3c(Br)cccc3Br)c(N)nc2n1
182 to 186 °C | COC(=O)c1ccc(NC(C)=O)c(NC(=O)COC(C)=O)c1
288 to 292 °C | CCCN1NCc2c(C3C(=O)Nc4ccc(F)cc43)ncnc21 (stereo not given)
68 to 69 °C | O=Cc1ccc(F)c(OCc2ccccc2)c1
199 to 202 °C | CC(=C(Cl)Cl)c1cc(N)c(S(N)(=O)=O)cc1S(N)(=O)=O
221 to 222 °C | CC(C(O)c1ccc2[nH]c(=O)[nH]c2c1)N1CCC(Cc2ccccc2)CC1 (stereo not given)
174 to 178 °C | CC(C)(C)OC(=O)N1CCn2c(c(I)c(C#N)c2-c2ccccc2)C1
> 250 °C | O=C(c1ccc(Nc2nc(-c3ccccc3)nc3ccccc23)cc1)N1CCN(c2ncc(Cc3ccccc3)cn2)CC1
88 to 92 °C | CCCCNS(=O)(=O)CC(O)C(O)C(CC1CCCCC1)NC(=O)CCC(C)C (stereo not given)
153 to 154 °C | NCCCCCCc1ccc(C2=NNC(=O)CC2)cc1
102 to 103 °C | CCOP(=O)(CCc1ccnc(-c2nc(=O)c3ccccc3s2)c1)OCC
113 to 114 °C | COc1ccc(-c2cc(OC3SCC(OC(C)=O)C(OC(C)=O)C3OC(C)=O)ccn2)cc1 (stereo not given)
192 to 193 °C | O=c1[nH]c(CCN2CCCC(O)C2)cc2ccccc12 (stereo not given)
375 °C | O=C(O)c1ccc2c(c1)C=Cc1ccc(C(=O)O)cc1S2(=O)=O
149 to 150 °C | CCCCCCCCCNC(=O)Nc1ccccc1C(=O)NC1CCN(C(c2ccccc2)c2ccccc2)CC1
137 °C | COc1ccc(Cl)cc1C(C)(C)c1cc(Cl)ccc1O
203 to 205 °C | Nc1nc2c(s1)CC(CNC(=O)[C@@H]1CCCN1C(=O)[C@@H](CC1CCCCC1)NS(=O)(=O)Cc1ccccc1)CC2 (stereo not given in full)
169 to 172 °C | CCCCNc1n[nH]c2c1c(=O)n(CCC)c1ccccc21
187 to 189 °C | CCOC(=O)c1cn2c(cc(OC(C)C)c3ccc(Cl)cc32)n1

melting point | Compound
242 °C | CCCc1nc(Sc2ccc(O)cc2)c(C=O)n1Cc1cc2c(cc1Cl)OCO2
238 to 240 °C | O=S1(=O)N=CN(C2CCC2)c2cc(Cl)c(Cl)cc21
78 to 80 °C | CC(C)(C)NC(=O)[C@@H](N)C(C)(C)C
107 to 132 °C | Cc1cccc2sc3ccccc3c(=O)c12
143 to 145 °C | Cc1cc(Cl)ccc1N1CCCN(C)C1=S
105 to 107 °C | Cc1nc(CS(=O)(=O)c2cccc(Cl)c2Cl)no1
242 to 243 °C | Cc1cc2c(cc1C)C(C(F)(F)F)(C(F)(F)F)c1cc3c(cc1O2)Oc1cc(C)c(C)cc1C3(C(F)(F)F)C(F)(F)F
193 to 196 °C | COC(=O)c1ccc(CN2C(=O)CCc3c(CC4SC(=O)NC4=O)ccc(OC)c32)cc1 (stereo not given)
270 °C | O=C1Nc2c(ccc3c2CCNC3)C1=O
98 to 100 °C | C=CCN(C)c1nc(Cc2ccc(OC)c(OC)c2)nc2sc(C#N)c(C)c12
125 to 126 °C | O=C(O)Cc1ccc(OCCCCc2cc(-c3ccc(C(F)(F)F)cc3)no2)cc1
117 to 118 °C | CCc1nn(CO)c(CC)c1Cc1cc(Cl)cc(Cl)c1
190 to 191 °C | CC(C)(C)OC(=O)c1n[nH]c2nc(N3CCNCC3)ccc12
195 to 197 °C | CCCCc1nnc2c(NC3CCCC3)nc3ccccc3n12
232 to 233 °C | CN1CCN(c2cccc(NC(=O)c3ccc(-c4ccncc4)cc3)c2)CC1
158 to 161 °C | COc1ccc2c(c1)C(=O)N(c1ccc3ccn(C)c3c1)C2
225 to 230 °C | Cc1ccc(C2(CC(=O)O)CNC(=O)C2)c(C)c1 (stereo not given)
228 to 231 °C | CC(C)(C)CN1C(=O)N(CC(=O)O)CC(c2ccccc2Cl)c2cc(Cl)ccc21 (stereo not given)
160 to 161 °C | Cc1nc(-n2cnn(CC3CC3)c2=O)sc1C(=O)NCc1ccccn1
196 to 199 °C | OC(Cn1ccnc1)c1ccc2c(c1)Cc1ccccc1-2 (stereo not given)
63 to 65 °C | C(=C(c1ccccc1)c1ccccc1)C1CCN(CCCCCCCCCCc2cccnc2)CC1
89 to 90 °C | Cn1cc([N+](=O)[O-])cc1CO
84 to 90 °C | CCOC(=O)Cc1nsc(Nc2ccc(F)c(F)c2)n1
64.8 to 65.5 °C | CCCc1ccc(C=Nc2ccc(C#N)cc2)cc1

melting point | Compound
118 °C | C=CC(=O)N(c1cc(-n2ncc(=O)n(C)c2=O)c(F)cc1C#N)S(=O)(=O)CC
133 to 134 °C | Cn1cc(C(=O)Nc2ccccc2-c2ccc(F)c(Cl)c2)c(CF)n1
50 to 52 °C | Oc1ccc(C(F)(F)F)cc1C=S
57 to 58 °C | Fc1ccc(Cn2ccc3cc(Br)ccc32)cc1
> 285 °C | O=C(NN=Cc1c(O)c(O)cc2ccccc12)c1cc2ccccc2cc1O
184 to 186 °C | COc1ccccc1Nc1nc2c(-c3ccc(C(F)(F)F)cc3)cccn2n1
143 °C | CN(C)CCOc1cccc(CC(Nc2cc(-c3ccc(OCc4ccccc4)cc3)ncn2)C(=O)O)c1 (stereo not given)
283 to 284 °C | CCn1cc(C(=O)O)c(=O)c2cc(F)c(N3CCC(NC(C)=O)C3)nc21 (stereo not given)
147 to 148 °C | COC(=O)c1cccc(-c2nnc(-c3ccc(-c4cccc(C)c4)cc3)o2)c1
174 to 175 °C | CCCN(CCC)CCCC1CCN(CCNC(=O)N2c3cc(Cl)ccc3C(=O)Nc3cccnc32)CC1
193 to 194 °C | O=CC(=C(c1ccc(F)cc1)c1ccc(F)cc1)n1nnnc1-c1ccccc1
175 to 180 °C | COc1ccc2c3c(oc2c1)CC(C(=O)O)CC3 (stereo not given)
247 to 248 °C | COc1cc(C=CC(=O)Nc2cnc3ccccc3c2-c2ccccc2)cc(OC)c1OC(C)=O
88 °C | O=C(O)CCCc1cc2nc(Cl)ccc2n1S(=O)(=O)c1ccc(N2CCCC2)cc1
90 to 95 °C | Cn1c(COc2ccc(CC3SC(=O)N(C(c4ccccc4)(c4ccccc4)c4ccccc4)C3=O)cc2)nc2ccc(Sc3ccccc3)nc21 (stereo not given)
73 to 75 °C | CC(C)N(C(=S)ON1C(=O)c2ccccc2C1=O)C(C)C
134 °C | CSc1cccc2c1CCn1cc(-c3ccccc3)nc1C2OC1CCN(C)CC1 (stereo not given)
215 to 218 °C | CS(=O)(=O)Nc1c(C(=O)c2ccccc2)[nH]c2cc(Cl)ccc12
211 to 213 °C | O=C(O)c1ccc(OCc2ccccc2)c(Cl)c1
86 to 87 °C | C[Si](C)(C)CC(O)(Cn1cncn1)c1ccccc1 (stereo not given)
154 to 160 °C | COc1ccc2c(c1)N(c1ccc(F)cc1)C(=O)C2(CCc1nnn[nH]1)NC(=O)c1cc2ccccc2cn1 (stereo not given)
74 to 75 °C | COC1C=C(Br)C(=O)CO1 (stereo not given)
56 to 57 °C | CC1=C(C)C(=O)C(CCCCC#CCCCC#CCOC(N)=O)=C(C)C1=O
76 to 77 °C | CC(=O)OC(CCCN1CCN(c2ncc(F)cn2)CC1)c1ccc(F)cc1 (stereo not given)

melting point | Compound
118 to 119 °C | CCOC(=O)COc1ccc(NS(C)(=O)=O)cc1OC
222 to 223 °C | CC(=O)OC(C)(C)C(=O)Nc1c(C(=O)c2cc(C)ccn2)[nH]c2cc(Cl)ccc12
187 to 189 °C | OCc1ccc2c(c1)Nc1nccnc1S2
283 °C | O=P1(Oc2c(Cl)cc(Cl)cc2Cl)OCC2(CO1)COP(=O)(Oc1c(Cl)cc(Cl)cc1Cl)OC2 (stereo not given)
152 to 154 °C | Cc1cccc(COc2cccc(OCc3coc(-c4cccc(F)c4)n3)c2)c1C(=O)O
81 to 84 °C | CCOC(=O)C(CC(=O)c1ccc(OC)cc1)C(=O)OCC
210 to 212 °C | CCCCc1ncc(/C=C(\Cc2cccs2)C(=O)O)n1Cc1ccccc1C#N
132 to 135 °C | CN(C)CC(C(O)c1ccc([N+](=O)[O-])cc1)N1CCC(Cc2ccccc2)CC1 (stereo not given)
80 to 81 °C | Oc1cc2c(cc1Sc1ccccc1)OCC2
63 to 65 °C | COC(=O)c1sc(OC)c(C)c1O
255 to 257 °C | Cc1cc(-c2nnc3c4cccnc4c(OCc4ncnn4C)nn23)no1
189 to 190 °C | CCC(CC)O[C@@H]1C=C(C(=O)O)C[C@H](CC(O)CO)[C@H]1NC(C)=O (stereo not given in full)
106 to 108 °C | OCc1ccc(Br)c(CO)c1
191 to 193 °C | CC(C(O)CCC(C)(C)C)C1CCC2C3CC=C4CC(O)CCC4(C)C3CCC12C (stereo not given)
257 to 258 °C | N#Cc1c(I)[nH]c(I)c1I
> 220 °C | O=c1ccc(S(=O)(=O)c2oc3ccccc3c2-c2ccccc2)n[nH]1
122 to 124 °C | C=CCOC(=O)Cc1cccc(NC(=O)NCC(=O)N(CC(=O)OC(C)(C)C)c2ccccc2C(=O)c2ccccc2)c1
153 to 156 °C | c1ccc(NC2=NC(Nc3ccccc3)(c3ccccc3)C(c3ccccc3)=N2)cc1 (stereo not given)
226 to 229 °C | CC(C(=O)O)n1c(-c2ccc(Cl)cc2)nc2cccnc21 (stereo not given)
116 to 118 °C | O=C(O)CCCOc1ccc([N+](=O)[O-])cc1
262 to 263 °C | O=C(Cc1ccc(C(=O)O)cc1)Nc1cccc(/C=C/c2nc(C3CCC3)cs2)c1

Compound | melting point
ON=C1CCC2(O)C3Cc4ccc(O)c5c4C2(CCN3CC2CC2)C1O5 (stereo not given) | 235 to 236 °C
CCCNC1=Nc2cccnc2N(CC)c2ncccc21 | 114 to 116 °C
Cc1csc(C2=CCN(CCCC(=O)c3ccc(F)cc3)CC2)n1 | 81 to 82 °C
CCCCCCCCCCCCCCCCCc1nnc2n1-c1sc(CC)cc1C(c1ccc(C)cc1)=NC2 | 78 to 80 °C
O=C(OC1c2ccccc2C(=O)N1c1ccc2ccc(Cl)nc2n1)N1CCN(C=S)CC1 (stereo not given) | 295 °C
COC(=O)c1ncn2c1[C@@H]1CCCN1C(=O)c1ccccc1-2 | 165 to 167 °C
CC(C)NCC(O)c1ccc(N)c(C(F)(F)F)c1 (stereo not given) | 136 to 138 °C
